Assay results: patent publication US20160081973A1, “ACTIVATOR OF MITOCHONDRIA” (FLORA CO., LTD., priority 2013, published 2016)

What was measured:
Format in all cases: cell-based, human
HL60 cells [1] = assay: Cell differentiation induction test, NBT reduction staining (differentiation into neutrophils); details: for differentiation ratio (ratio of NBT-stained cells): after 10 days of culture
Method: (§1) To each well of a 6-well plate, 1 mL of HL60 cells were plated at a concentration of 5×10^4 cells/mL, and a test substance at five serial concentrations (a 10-fold dilution series ranging from 10%) was added to the well at the same time as the plating. The cells in the plate were cultured for 5 days or 10 days under 5% […] at 37° C. The cell suspension in each well was recovered by centrifugation, and the number of cells, the NBT reducing capacity, and the esterase activity of the recovered cells were measured. In addition, changes in the karyotype of each cell was observed by Carrazzi's hematoxylin staining. The ratio of stained cells in each sample was measured to evaluate the differentiation induction capacity. The test was carried out in 5 replicates (n=5). A sample without addition of the test substance, and 0.1% ethyl alcohol (solvent control for the positive control) were used as negative controls, and retinoic acid (dissolved in ethyl alcohol; final concentration, 1 μM) and active vitamin D3 (dissolved in ethyl alcohol; final concentration, 10 nM) were used as positive controls. Details of each staining method are described below.
The concentration of the recovered cells was adjusted to 1×10^6 cells/mL with RPMI 1640 medium (SIGMA, R8758, serum-free), and an equal volume of NBT solution (PBS supplemented with 0.2% NBT and 20% FBS, which was used after filtration) was added thereto. TPA was added to the resulting mixture to a final concentration of 6 μM, and the mixture was then stirred. Thereafter, the mixture was left to stand at 37° C. for 30 minutes, and centrifuged at 1000 rpm for 5 minutes, followed by discarding the supernatant. Subsequently, the cells were resuspended in PBS, and applied onto a slide glass, followed by counting cells stained blue under the microscope.

HL60 cells [2] = assay: Cytotoxicity test (mitochondrial activity level, counting of viable cells with WST-8); details: 3 days of culture, FIG. 1
Method: HL60 cells were cultured using a test medium (RPMI 1640 medium, 10% FBS, antibiotic-free) to the logarithmic growth phase in a CO: incubator (5% Cq, 37° C.). 2) Cytotoxicity Test (Evaluation of the Toxicity Based on the Viability, that is, the Survival Rate or the Death Rate, of Cells) To each well of a 96-well plate, 0.1 mL of HL6O cells were plated at a concentration of 5×10^4 cells/mL, and a test substance (7 serial dilutions: a 10-fold dilution series ranging from 10%; the test substance was preliminarily sterilized by filtration) was added to the well at the same time. After 3 days of the culture, a viable cell assay reagent SF (final concentration, 10%) was added to the cell suspension culture liquid, and viable cells were counted. The test was carried out in 3 replicates (n=3). The viability of the cells was evaluated using a viable cell counting reagent SF (WST-8) based on measurement of the absorbance.

HL60 cells [3] = assay: DNA methylation level in HL60 cells; details: 10 days of culture, FIG. 7
HL60 cells [4] = assay: Cell differentiation induction test, esterase staining (differentiation into monocytes); details: final concentration 1 μM
Method: as §1
Esterase staining was carried out as follows using an esterase staining kit (manufactured by Muto Pure Chemicals Co., Ltd.). The concentration of the recovered cells was adjusted to 1×10^6 cells/mL with PBS. […]

HL60 cells [5] = assay: Counting of viable cells by trypan blue staining; details: positive control; solvent control 1.0×10^−5% DMSO; 5 days of culture; FIG. 8
Method: In each of T25 flasks, 5 mL of HL60 cells were seeded at 1×10^7 cells/flask. At the same time as the seeding, test substances (ethyl alcohol, retinoic acid, dimethyl sulfoxide, rotenone, SDW, and Examples 3 and 4) were fed to the flasks.
The addition of Example 3 to the medium was carried out after its sterilization by filtration. In Example 4, 10 mL of the test substance was warmed at 60° C. to evaporate the whole solvent, and 10 mL of sterile water was newly added thereto to dissolve the resultant. The resulting solution was sterilized by filtration, and then added to the medium. The retinoic acid to be added was provided as a concentrated solution containing retinoic acid at a concentration of 100 mM in ethyl alcohol, and the rotenone to be added was provided as a concentrated solution containing rotenone at a concentration of 100 mM in DMSO. […]
To 50 μL of a cell suspension culture liquid, 50 μL of a trypan blue solution was added, and the reaction was allowed to proceed for several minutes. Under the microscope, unstained cells and stained cells were counted using a hemocytometer. The number of dead cells (stained cells) per total number of cells was determined to calculate the number of live cells (cells/mL) and the dead cell ratio (%).

C=C1/C(=C\C=C2/CCC[C@]3(C)[C@@H]([C@H](C)CCCC(C)(C)O)CC[C@@H]23)C[C@@H](O)C[C@@H]1O [active vitamin D3, reference compound]
differentiation ratio (ratio of NBT-stained cells) (HL60 cells [1]; final concentration 10 nM, decreased by half): 4%

O=c1c(O)c(-c2ccc(O)cc2)oc2cc(O)cc(O)c12 [kaempferol]
mitochondrial activity (absorbance, viable cell count) (HL60 cells [2]; concentration 0.1% (30 ng/mL=0.03 μg/mL) to 10% (300 μg/mL)): increased
mitochondrial activity (absorbance, viable cell count) (HL60 cells [2]; concentration 3.2×10^−4% to 0.032%): suppressed
differentiation ratio (ratio of NBT-stained cells) (HL60 cells [1]; 300 μg): 3%
differentiation ratios (NBT-stained cells) on Day 10 of the culture, change (HL60 cells [1]; Day 10 of the culture, FIG. 4): decreased
differentiation ratio (NBT-stained cells), trend (HL60 cells [1]; after 5 days of culture, FIG. 3): concentration-dependent improvement
DNA methylation level in the HL60 cells (HL60 cells [3]; concentration 0.001%): increased
DNA methylation level in the HL60 cells (HL60 cells [3]; concentration 10% (300 μg/mL)): decreased

CC1=C(/C=C/C(C)=C/C=C/C(C)=C/C(=O)O)C(C)(C)CCC1 [retinoic acid]
differentiation ratio (ratio of NBT-stained cells) (HL60 cells [1]; final concentration 1 μM): 68%
differentiation into monocytes (ratio of esterase-stained cells) (HL60 cells [4]; Day 5 of the culture): 2%
differentiation into monocytes (ratio of esterase-stained cells) (HL60 cells [4]; Day 10 of the culture): 14%

C=C(C)[C@H]1Cc2c(ccc3c2O[C@@H]2COc4cc(OC)c(OC)cc4[C@@H]2C3=O)O1 [rotenone]
viable cell count by trypan blue staining versus solvent control (HL60 cells [5]): decreased to about half
